Tested on: CFTR
Test: CFTR modulating activity, generated using one or more of the assays disclosed (e.g. membrane potential dye assay in enteroid cells)
Type: cell-based, human
Settings: one or more of the assays disclosed herein; qualitative (Active / ND)
Description: Human intestinal epithelial enteroid cells may be obtained from the Hubrecht Institute for Developmental Biology and Stem Cell Research, Utrecht, The Netherlands and expanded in T-Flasks as previously described (Dekkers JF, Wiegerinck CL, de Jonge HR, Bronsveld I, Janssens HM, de Winter-de Groot KM, Brandsma AM, de Jong NWM, Bijvelds MJC, Scholte BJ, Nieuwenhuis EES, van den Brink S, Clevers H, van der Ent CK, Middendorp S and M Beekman JM. A functional CFTR assay using primary cystic fibrosis intestinal organoids. Nat Med. 2013 Jul;19(7):939-45.).
Cells may be recovered in cell recovery solution, collected by centrifugation at 650 rpm for 5 min at 4° C., resuspended in TryPLE and incubated for 5 min at 37° C. Cells can then be collected by centrifugation at 650 rpm for 5 min at 4° C. and resuspended in IEMM containing 10 µM ROCK inhibitor (RI). The cell suspension is then passed through a 40 µm cell strainer and resuspended at 1x10^6 cells/mL in IEMM containing 10 µM RI. Cells may be seeded at 5000 cells/well into multi-well plates and incubated for overnight at 37° C., 95% humidity and 5% CO2 prior to assay.
Enteroid cells may be incubated with test compound in IEMM for 18-24 hours at 37° C., 95% humidity and 5% CO2. Following compound incubations, a membrane potential dye assay can be employed using a FLIPR Tetra to directly measure the potency and efficacy of the test compound on CFTR-mediated chloride transport following acute addition of 10 µM forskolin and 300 nM N-[2,4-bis(1,1-dimethylethyl)-5-hydroxyphenyl]-1,4-dihydro-4-oxoquinoline-3-carboxamide. Briefly, cells aree washed 5 times in Bath 1 Buffer. Bath 1 Dye Solution is added and the cells are incubated for 25 min at room temperature. Following dye incubation, cells are washed 3 times in Chloride Free Dye Solution. Chloride transport is initiated by addition of Chloride Free Dye Stimulation Solution and the fluorescence signal is read for 15 min. The CFTR-mediated chloride transport for each condition may be determined from the AUC of the fluorescence response to acute forskolin and 300 nM N-[2,4-bis(1,1-dimethylethyl)-5-hydroxyphenyl]-1,4-dihydro-4-oxoquinoline-3-carboxamide stimulation.
Chloride transport may be expressed as a percentage of the chloride transport following treatment with one or more reference standards or positive controls. Suitable reference standards/controls include one or more of Compound II, Compound III, Compound IV, and Compound A. Compound A is:
Table 6 confirms CFTR modulating activity for representative compounds of the invention generated using one or more of the assays disclosed herein.

Row | SMILES | CFTR Modulating Activity
1 | C[C@@H]1CN(c2nc(-n3ccc(OCC[Si](C)(C)C)n3)ccc2C(=O)NS(=O)(=O)c2ccccc2)C(C)(C)C1 [Compound 2-7, N-(Benzenesulfonyl)-2-[(4S)-2,2,4-trimethylpyrrolidin-1-yl]-6-[3-(2-trimethylsilylethoxy)Pyrazol-1-yl]Pyridine-3-carboxamide] | Active
2 | C[C@@H]1CN(c2nc(-n3ccc(OC[Si](C)(C)C(C)(C)C)n3)ccc2C(=O)NS(=O)(=O)c2ccccc2)C(C)(C)C1 [Compound 2-15, N-(Benzenesulfonyl)-6-[3-[[tert-butyl(dimethyl)silyl]methoxy]pyrazol-1-yl]-2-[(4S)-2,2,4-trimethylpyrrolidin-1-yl]pyridine-3-carboxamide] | Active
3 | CC1(C)CC([Si](C)(C)C)CN1c1nc(-n2ccc(OCCC3(C(F)(F)F)CC3)n2)ccc1C(=O)NS(=O)(=O)c1ccccc1 (single isomer, unassigned) [2-13 Enantiomer 1, N-(Benzenesulfonyl)-2-(2,2-dimethyl-4-trimethylsilyl-pyrrolidin-1-yl)-6-[3-[2-[1-(Trifluoromethyl)Cyclopropyl]Ethoxy]Pyrazol-1-yl]Pyridine-3-carboxamide] | Active
4 | C[C@@H]1CN(c2nc(-n3ccc([Si](C)(C)CCC(C)(C)C)n3)ccc2C(=O)NS(=O)(=O)c2ccccc2)C(C)(C)C1 [Compound 2-5, N-(Benzenesulfonyl)-6-[3-[3,3-dimethylbutyl(Dimethyl)Silyl]Pyrazol-1-yl]-2-[(4S)-2,2,4-trimethylpyrrolidin-1-yl]Pyridine-3-carboxamide] | Active
5 | C[C@@H]1CN(c2nc(-n3ccc(OCCC4(C(F)(F)F)CC4)n3)c([Si](C)(C)C)cc2C(=O)NS(=O)(=O)c2ccccc2)C(C)(C)C1 [Compound 2-1, N-(Benzenesulfonyl)-6-[3-[2-[1-(Trifluoromethyl)Cyclopropyl]Ethoxy]Pyrazol-1-yl]-2-[(4S)-2,2,4-trimethylpyrrolidin-1-yl]-5-trimethylsilyl-pyridine-3-carboxamide] | Active
6 | C[C@@H]1CN(c2nc(-n3ccc(OCCC4([Si](C)(C)C)CC4)n3)ccc2C(=O)NS(=O)(=O)c2ccccc2)C(C)(C)C1 [Compound 2-6, N-(Benzenesulfonyl)-2-[(4S)-2,2,4-trimethylpyrrolidin-1-yl]-6-[3-[2-(1-trimethylsilylcyclopropyl)Ethoxy]Pyrazol-1-yl] Pyridine-3-carboxamide] | Active
7 | Cc1ccc([Si](C)(C)c2ccc(C(=O)NS(=O)(=O)c3ccccc3)c(N3C[C@@H](C)CC3(C)C)n2)cc1 [Compound 2-4, N-(Benzenesulfonyl)-6-[Dimethyl(p-tolyl)Silyl]-2-[(4S)-2,2,4-trimethylpyrrolidin-1-yl]pyridine-3-carboxamide] | Active
8 | C[C@@H]1CN(c2nc(-n3ccc([Si](C)(C)CCC(F)(F)F)n3)ccc2C(=O)NS(=O)(=O)c2ccccc2)C(C)(C)C1 [Compound 2-12, N-(Benzenesulfonyl)-6-[3-[Dimethyl(3,3,3-trifluoropropyl)Silyl]Pyrazol-1-yl]-2-[(4S)-2,2,4-trimethylpyrrolidin-1-yl]Pyridine-3-carboxamide] | Active
9 | C[C@@H]1CN(c2nc([Si](C)(C)c3ccccc3)ccc2C(=O)NS(=O)(=O)c2ccccc2)C(C)(C)C1 [Compound 2-2, N-(Benzenesulfonyl)-6-[Dimethyl(Phenyl)Silyl]-2-[(4S)-2,2,4-trimethylpyrrolidin-1-yl]Pyridine-3-carboxamide] | Active
10 | C[C@@H]1CN(c2nc(-n3ccc(OCCC4(C(F)(F)F)CC4)n3)ccc2C(=O)NS(=O)(=O)c2cccc([Si](C)(C)C)c2)C(C)(C)C1 [Compound 2-17, 6-[3-[2-[1-(Trifluoromethyl)Cyclopropyl]Ethoxy]Pyrazol-1-yl]-2-[(4S)-2,2,4-trimethylpyrrolidin-1-yl]-N-(3-trimethylsilylphenyl)Sulfonyl-pyridine-3-carboxamide] | Active
11 | C[C@@H]1CN(c2nc(-n3ccc([Si](C)(C)C(C)(C)C)n3)ccc2C(=O)NS(=O)(=O)c2ccccc2)C(C)(C)C1 [Compound 2-14, N-(benzenesulfonyl)-6-[3-[Tert-butyl(Dimethyl)Silyl]Pyrazol-1-yl]-2-[(4S)-2,2,4-trimethylpyrrolidin-1-yl]Pyridine-3-carboxamide] | Active
12 | C[C@@H]1CN(c2nc(-n3ccc(OCCC4(C(F)(F)F)CC4)n3)ccc2C(=O)NS(=O)(=O)c2ccccc2)C(C)([Si](C)(C)C)C1 (single isomer, unassigned) [2-10 Isomer 2] | Active
13 | C[C@@H]1CN(c2nc(-n3ccc(OCC(C)(C)C(F)(F)F)n3)ccc2C(=O)NS(=O)(=O)c2cccc([Si](C)(C)C)c2)C(C)(C)C1 [Compound 2-16, 6-[3-(3,3,3-trifluoro-2,2-dimethyl-propoxy)pyrazol-1-yl]-2-[(4S)-2,2,4-trimethylpyrrolidin-1-yl]—N—(3-trimethylsilylphenyl)sulfonyl-pyridine-3-carboxamide] | Active
14 | C[C@@H]1CN(c2nc(-n3ccc(OC[Si](C)(C)C)n3)ccc2C(=O)NS(=O)(=O)c2ccccc2)C(C)(C)C1 [Compound 2-11, N-(Benzenesulfonyl)-2-[(4S)-2,2,4-trimethylpyrrolidin-1-yl]-6-[3-(Trimethylsilylmethoxy)Pyrazol-1-yl]Pyridine-3-carboxamide] | Active
15 | C[C@@H]1CN(c2nc([Si](C)(C)CCC(C)(C)C)ccc2C(=O)NS(=O)(=O)c2ccccc2)C(C)(C)C1 [Compound 2-3, N-(benzenesulfonyl)-6-[3,3-dimethylbutyl(dimethyl)silyl]-2-[(4S)-2,2,4-trimethylpyrrolidin-1-yl]pyridine-3-carboxamide] | Active
16 | C[C@@H]1CN(c2nc(-n3ccc([Si](C)(C)C)n3)ccc2C(=O)NS(=O)(=O)c2ccccc2)C(C)(C)C1 [Compound 2-18, N-(benzenesulfonyl)-2-[(4S)-2,2,4-trimethylpyrrolidin-1-yl]-6-(3-trimethylsilylpyrazol-1-yl)pyridine-3-carboxamide] | Active
17 | C[C@@H]1CN(c2nc(-n3ccc(OCCC[Si](C)(C)C)n3)ccc2C(=O)NS(=O)(=O)c2ccccc2)C(C)(C)C1 [Compound 2-9, N-(Benzenesulfonyl)-2-[(4S)-2,2,4-trimethylpyrrolidin-1-yl]-6-[3-(3-trimethylsilylpropoxy)Pyrazol-1-yl]Pyridine-3-carboxamide] | Active
18 | C[C@@H]1CN(c2nc([Si](C)(C)C)ccc2C(=O)NS(=O)(=O)c2ccccc2)C(C)(C)C1 [Compound 2-8, N-(Benzenesulfonyl)-2-[(4S)-2,2,4-trimethylpyrrolidin-1-yl]-6-trimethylsilyl-pyridine-3-carboxamide] | Active
